{"source": "ChEMBL document CHEMBL1158790", "about": "“Pseudopyronines A and B, alpha-pyrones produced by a marine Pseudomonas sp. F92S91, and evidence for the conversion of 4-hydroxy-alpha-pyrone to 3-furanone” (J Nat Prod, 2005)", "test_system": "Saccharomyces cerevisiae", "test": "Antifungal activity against Saccharomyces cerevisiae", "type": "functional, organism-based", "note": "Active and inactive are the calls of the source. The calls are words filed in the database; no cut-off is given here.", "data": [{"molecule": "CCCCCCCC1=CC(=O)C(O)(CCCCCC)O1", "note": "(stereo unspecified)", "values": [{"measurement": "Activity", "value": "inactive"}]}]}
